Experimental data published in patent publication US6723702B2, “Use of relaxin treat diseases related to vasoconstriction” (RAS Medical, Inc., priority 2000, dated 2004).

Columns and labels:
intact, female rats = test: Chronic infusion of purified porcine RLX or rhRLX: MAP and renal function in conscious rats; format: in vivo, rat; conditions: chronic infusion 4 μg/hour
Description: Long-Evans female rats aged 10-14 weeks were purchased from Harlan Sprague-Dawley (Frederick, Md.). They were fed PROLAB RMH 2000 diet containing 0.48% sodium (PME Feeds Inc., St. Louis, Mo.) and provided water ad libitum. To prepare the rats for experimental procedures, they were trained for several hours in a Plexiglas restraining cage (Braintree Scientific Co., Braintree, Mass.) on at least five different occasions before surgical intervention. These cages afforded sufficient space for grooming of the face and front paws while preventing the rat from turning around. Thus, accurate timed-urine collections and blood samplings were made possible from the chronically implanted bladder and vascular catheters, respectively. Rats failing to habituate to the cage were eliminated from the study (<1%). All animal procedures were approved by the Institutional Animal Care and Use Committee of the Magee-Womens Research Institute.
The details of the surgical procedures have been previously described. See, e.g., Conrad (1984) Kidney Int. 26:24-29; and Danielson and Conrad (1995) J. Clin. Invest. 96:482-490. […] The bladder catheter, a silastic-covered stainless steel cannula, was sewn into the urinary bladder with a purse-string suture and exteriorized through the ventral abdominal wall. This catheter was then plugged allowing the animal to urinate through the urethra while in her home cage. In the ovariectomized and sham ovariectomized animals, the ovaries were first ligated and then excised, or briefly manipulated, respectively, via a small incision made in the lateral abdominal wall immediately after the insertion of vascular and bladder catheters. All surgeries were conducted using aseptic technique. At least a 7-day recovery period was allowed before experimentation.
For chronic infusion of relaxin, an osmotic minipump was inserted subcutaneously (s.c.) in the back of the animal under ether anesthesia. After shaving and cleaning the skin with alcohol and betadine, a small incision was made and the minipump containing either recombinant human relaxin (rhRLX), purified porcine relaxin (RLX), or vehicle was inserted. Then the incision was closed with surgical staples. The model 2001 and 2ML1 osmotic minipumps (Alza Co., Palo Alto, Calif.) were used for the purified porcine RLX and rhRLX, respectively.
At the beginning of each experiment, immediately after opening the arterial catheter and before infusion of fluids, 100 μl of blood was collected into a heparinized tube. […] The hematocrit was also routinely determined on these midpoint blood samples. […] MAP, GFR, ERPF, and ERVR were assessed on days 2 and 5 of the infusion, and 5-12 days after depletion of the 7-day minipump. […] Circulating relaxin concentrations of 20-40 ng/mL have been measured in rats of 12-14 gestational days. […]

[1] = tested on: human VEGF165, VEGF121, bFGF and HGF transcripts in human cardiac cells; test: Human cardiac cells: quantitative RT-PCR after relaxin treatment in vitro; format: cell-based
Description: Oligonucleotides were designed to rat or human bFGF, human VEGF165 amino acid or 121 amino acid isoforms, and their respective rat homologues (VEGF164 and VEGF120), and human HGF (for use with the PE Applied Biosystems “GeneAmp PCR System 9600”). Rat and human GAPDH primers and probes were purchased from BioSource International Inc. and PE Applied Biosystems, respectively. Tissue samples and monolayer cells were suspended in RNA STAT-60 (Tel-Test, Inc., Friendswood, Tex.) and processed following vendor instructions. Reverse transcription-polymerase chain reaction (RT-PCR) was performed using either rat or human total RNA as template. 150 ng of total RNA was used for the analysis of VEGF, bFGF and HGF mRNA expression; 10 ng of total RNA was used for GAPDH mRNA expression. Reverse transcription-polymerase chain reaction (RT-PCR) reagents were purchased from PE Biosystems (Foster City, Calif.).
To determine if the effects of relaxin observed in the rat were also seen in human cells, total RNA from cardiac cells was extracted following treatment of cells with 1, 10, and 100 ng/ml relaxin for 24 hours. Human cardiac cells were cultured for 24 hours either without or with relaxin (1-100 ng/ml). Untreated cells were incubated for the same 24 hour period under hypoxic (2% O2) conditions. Using 150 ng of total RNA for human VEGF and bFGF transcripts and 10 ng of total RNA for GAPDH transcripts, primer/probe sets were used to generate RT-PCR products for human VEGF 165aa and 121aa isoforns and human bFGF. Data were analyzed using Sequence Detector v1.6.3 software (Applied Biosystems/PE). VEGF and bFGF expression levels are graphed relative to GAPDH transcript levels. Data are shown as means±SEM, where n=3 per treatment group; *p<0.05; Student-Newman-Keuls test. […] Absolute baseline levels of bFGF mRNA transcripts expressed by these cells were approximately 2-fold greater than those of either the VEGF121 or the VEGF165 isoforms. Total RNA from cells incubated under hypoxic conditions was analyzed as a positive control for the stimulation of VEGF isoforms. As predicted, mRNA transcript levels for both VEGF isoforms increased 220% over untreated control levels following 24 hr exposure to hypoxia, as shown in FIG. 6. bFGF expression was not induced by hypoxia. […] Relaxin had no effect on cellular proliferation, as assessed by ^3H-thymidine incorporation, on cellular morphology, or on desmin or vimentin staining patterns.

[2] = tested on: Alveolar macrophages or spleen cells; test: VEGF expression by RT-PCR in non-wound macrophages and immune cells; format: in vivo, rat; conditions: following relaxin treatment
Description: Resident macrophages and immune cells from other non-wound sources were also harvested from vehicle- and relaxin-treated rats, and assayed for VEGF expression by RT-PCR.

[3] = days 2 and 5, rhRLX significant only at day 5

Substance	effect on MAP (intact, female rats; days 2 and 5 (FIG. 1A))	effect on ERPF (intact, female rats; [3])	effect on ERVR (intact, female rats; [3])	effect on GFR (intact, female rats; [3])	Basic FGF expression, maximum elevation over baseline ([1]; 100 ng/ml, 24 hours) [fold]	VEGF121 mRNA, maximum increase in expression over untreated controls ([1]; 100 ng/ml, 24 hours) [fold]	VEGF165 mRNA, maximum increase in expression over untreated controls ([1]; 100 ng/ml, 24 hours) [fold]	Transcripts for human HGF ([1]; untreated vs relaxin treated cells)	VEGF expression [2]
Porcine RLX: lyophilized, purified porcine relaxin (Sherwood and O'Byrne 1974), dissolved in Ringer's solution	did not significantly change	marked increase	reciprocal reduction	marked increase					
rhRLX: recombinant human relaxin, identical in amino acid sequence to the product of the human H2 gene; A chain of 24, B chain of 29 amino acids					2.2	3	2.3	no difference in expression	did not show an upregulation
